Laboratory results as given in patent US8436006B2, “2-amino-quinazoline derivatives useful as inhibitors of β-secretase (BACE)” (Jansssen Pharmaceutica N.V., priority 2004, dated 2013).

Experiments:
β-secretase (BACE) [1] = molecular target: T1, β-secretase (BACE) (Homo sapiens, UniProt P56817); assay: BACE % Inhibition Assay (Example 161), (Aedens)-[…]-(Dabcyl K-amide) substrate; type: biochemical; conditions: % error ±10%
T1 construct: purchased Panvera
Experimental: The following reagents were used in this assay: sodium acetate, PEG8000 (Sigma), DMSO, HEPES, (Aedens)-[…]-(Dabcyl K-amide) substrate, β-secretase (BACE) (Panvera), and 96-well plate (HE microplate, Molecular Devices).
The substrate stock solution was prepared in DMSO as a 10 mg/mL solution. The substrate working solution was prepared by diluting the 10 mg/mL stock solution with substrate assay buffer to a final concentration of 300 μg/mL. The β-secretase (BACE) working solution was prepared by diluting a 0.83 mg/mL BACE stock solution with enzyme assay buffer to a final concentration of 4 μg/mL.
Test compounds were dissolved in DMSO to 10 mM.
The screening procedure for this assay was as follows: 15 μL of BACE working solution was pipetted into each well of a 96-well plate. To each well was then pipetted 2 μL of test compound at the selected concentration. Test compound and BACE were then mixed with a pipettor and incubated for 20 min at room temperature. To each well was then added 10 μL of the substrate working solution. The plates were then incubated for 1 hour at room temperature.
The procedure for the blank was as follows. 15 μL of assay buffer was pipetted into each well to be used as a blank control. To each well was then added 2 μL of vehicle and 10 μL of substrate working solution. The plates were then incubated for 1 hour at room temperature.
The procedure for the positive control was as follows: 15 μl of BACE working solution was pipetted into each well to be used as a positive control. To each well was then pipetted 2 μL of vehicle. Vehicle and BACE were then mixed with a pipettor and incubated for 20 min at room temperature. To each well was then added 10 μL of the substrate working solution. The plates were then incubated for 1 hour at room temperature.
For test compounds, % inhibition was determined at each concentration as follows: % Inhibition=[[…]][FI(positive control)−FI(negative control)]

β-secretase (BACE) [2] = molecular target: T1, β-secretase (BACE); assay: BACE FS1% Inhibition Assay (Example 160); type: biochemical
Experimental: The following reagents were used in this assay: sodium acetate, PEB8000 (Sigma), DMSO, HEPES, FS1 substrate [[…]], β-secretase (BACE) (Panvera), and 96-well plate (HE microplate, Molecular Devices). […] The FS1-substrate stock solution was prepared in DMSO as a 10 mg/mL solution. The FS1-substrate working solution was prepared by diluting the 10 mg/mL stock solution with substrate assay buffer to a final concentration of 300 μg/mL. The β-secretase (BACE) working solution was prepared by diluting a 0.83 mg/mL BACE stock solution with enzyme assay buffer to a final concentration of 4 μg/mL. Test compounds were dissolved in DMSO to 10 mM. […] The screening procedure for this assay was as follows: 15 μL of BACE working solution was pipetted into each well of a 96-well plate. To each well was the pipetted 2 μL of test compound at the selected concentration. Test compound and BACE were then mixed with a pipettor and incubated for 20 min at room temperature. To each well was then added 10 μL of the FS1 substrate working solution. The plates were then incubated for 1 hour at room temperature. […] The procedure for the blank was as follows. 15 μL of assay buffer was pipetted into each well to be used as a blank control. To each well was then added 2 μL of vehicle and 10 μL of FS1-substrate working solution. The plates were then incubated for 1 hour at room temperature. […] The procedure for the positive control was as follows: 15 μL of BACE working solution was pipetted into each well to be used as a positive control. To each well was then pipetted 2 μL of vehicle. Vehicle and BACE were then mixed with a pipettor and incubated for 20 min at room temperature. To each well was then added 10 μL of the FS1 substrate working solution. The plates were then incubated for 1 hour at room temperature. […] For test compounds, % inhibition was determined at each concentration as follows: [formula]

T1 sequence (P56817 46-501): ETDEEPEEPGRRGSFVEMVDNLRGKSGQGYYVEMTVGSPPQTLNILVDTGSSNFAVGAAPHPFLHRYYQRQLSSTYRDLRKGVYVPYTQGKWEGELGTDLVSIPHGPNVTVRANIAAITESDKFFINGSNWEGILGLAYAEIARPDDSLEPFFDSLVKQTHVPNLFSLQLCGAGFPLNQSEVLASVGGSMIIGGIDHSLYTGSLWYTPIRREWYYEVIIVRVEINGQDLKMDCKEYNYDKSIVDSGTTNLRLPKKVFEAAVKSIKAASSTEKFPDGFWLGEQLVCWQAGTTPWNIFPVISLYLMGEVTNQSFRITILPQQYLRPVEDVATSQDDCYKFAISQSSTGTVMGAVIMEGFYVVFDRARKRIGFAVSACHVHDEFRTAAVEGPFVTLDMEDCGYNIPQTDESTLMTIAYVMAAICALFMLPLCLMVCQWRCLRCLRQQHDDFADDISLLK

% Inhibition (FS) (β-secretase (BACE) [2]; 0.3 μM test compound)	% Inhibition (FS) (β-secretase (BACE) [2]; 1 μM test compound)	% Inhibition (FS) (β-secretase (BACE) [2]; 3 μM test compound)	SMILES	also measured
<30%	36%	85%	COc1cccc(F)c1-c1ccc2c(c1)CN(CCNC(=O)C1CCC(C(F)(F)F)CC1)C(N)=N2 (stereo not drawn) [Compound 700]	
<30%	<30%	<30%	CC(=O)N1CCC(C(=O)NCCN2Cc3cc(C4=CCCCC4)ccc3N=C2N)CC1 [Compound 705]	
<30%	<30%	<30%	NC1=Nc2ccc(C3=CCCC3)cc2CN1CCNC(=O)C1CCC(C(F)(F)F)CC1 (stereo not drawn) [Compound 707]	
31%	<30%	81%	COc1ccccc1-c1ccc2c(c1)CN([C@@H](CCC(=O)N(C)Cc1cc(-c3ccccc3)on1)C1CCCCC1)C(N)=N2 [Compound 719]	
35%	35%	78%	CN(Cc1csc(-c2ccccc2)n1)C(=O)CC[C@@H](C1CCCCC1)N1Cc2cc(-c3ccccc3F)ccc2N=C1N [Compound 722]	
33%	74%	126%	CN(CCC#N)C(=O)CC[C@@H](C1CCCCC1)N1Cc2cc(-c3ccccc3F)ccc2N=C1N [Compound 725]	
46%	80%		CN(CCc1ccccc1)C(=O)CC[C@@H](C1CCCCC1)N1Cc2cc(-c3ccccc3F)ccc2N=C1N [Compound 727]	
14%	28%	61%	CN(C(=O)CCC(C)(C)N1Cc2cc(Oc3ccccc3)ccc2N=C1N)C1CCCCC1 [Compound 738]	
−48%	−38%	−25%	CN(C(=O)CCC(C1CCCCC1)N1Cc2cc(Oc3ccccc3)ccc2N=C1N)C1(C(=O)O)CCCCC1 (stereo not drawn) [Compound 741]	
85%	104%	112%	CN(C(=O)CC[C@@H](C1CCOCC1)N1Cc2cc(Oc3ccccc3)ccc2N=C1N)[C@H]1CC[C@H](C(=O)O)CC1 [Compound 746]	
<30%	44%	89%	CN(C(=O)CCC(C1CCCCC1)N1Cc2cc(Oc3ccccc3)ccc2N=C1N)C1CCC(C(=O)OCc2ccccc2)CC1 (stereo not drawn) [Compound 760]	

The next lines start with the compound.

SMILES	% Inhibition (FS) (β-secretase (BACE) [2]; 0.3 μM test compound)	% Inhibition (FS) (β-secretase (BACE) [2]; 1 μM test compound)	% Inhibition (FS) (β-secretase (BACE) [2]; 3 μM test compound)	also measured
CCCC(CNC(=O)OC(C)(C)C)N1Cc2cc(Oc3ccccc3)ccc2N=C1N (stereo not drawn) [Compound 318]				% Inhibition (β-secretase (BACE) [1]; 0.3 μM test compound): 32%; % Inhibition (β-secretase (BACE) [1]; 1 μM test compound): 70%; % Inhibition (β-secretase (BACE) [1]; 3 μM test compound): 103%
COc1ccccc1-c1ccc2c(c1)CN(CCNC(=O)C1CCC(C(F)(F)F)CC1)C(N)=N2 (stereo not drawn) [Compound 698]	<30%	<30%	64%	
COc1cccc(F)c1-c1ccc2c(c1)CN(CCNC(=O)C1CCOCC1)C(N)=N2 [Compound 699]	31%	64%	93%	
NC1=Nc2ccc(-c3ccccc3)cc2CN1CCNC(=O)C1CCC(C(F)(F)F)CC1 (stereo not drawn) [Compound 701]	<30%	<30%	54%	
CC(=O)N1CCC(C(=O)NCCN2Cc3cc(-c4ccccc4)ccc3N=C2N)CC1 [Compound 702]	<30%	<30%	<30%	
COC1CCCC(C(=O)NCCN2Cc3cc(-c4ccccc4)ccc3N=C2N)C1 (stereo not drawn) [Compound 703]	<30%	46%	83%	
NC1=Nc2ccc(C3=CCCCC3)cc2CN1CCNC(=O)C1CCC(C(F)(F)F)CC1 (stereo not drawn) [Compound 704]	<30%	<30%	<30%	
COC1CCCC(C(=O)NCCN2Cc3cc(C4=CCCC4)ccc3N=C2N)C1 (stereo not drawn) [Compound 706]	<30%	<30%	<30%	
COc1ccccc1-c1ccc2c(c1)CN([C@@H](CCC(=O)N(C)Cc1csc(-c3ccccc3)n1)C1CCCCC1)C(N)=N2 [Compound 716]	<30%	<30%	72%	
COc1ccccc1-c1ccc2c(c1)CN([C@@H](CCC(=O)N(C)Cc1cnn(-c3ccccc3)c1)C1CCCCC1)C(N)=N2 [Compound 717]	33%	39%	72%	
COc1ccccc1-c1ccc2c(c1)CN([C@@H](CCC(=O)N(C)Cc1cc(C)no1)C1CCCCC1)C(N)=N2 [Compound 718]	<30%	30%		
CN(Cc1cc(-c2ccccc2)on1)C(=O)CC[C@@H](C1CCCCC1)N1Cc2cc(-c3ccccc3F)ccc2N=C1N [Compound 724]	38%	<30%	65%	
CCOC(=O)C1CCC(N(C)C(=O)CCC(C2CCCCC2)N2Cc3cc(Oc4ccccc4)ccc3N=C2N)CC1 (stereo not drawn) [Compound 737]				% Inhibition (FS) (β-secretase (BACE) [2]; 0.3 μM test compound, 0.3 µM): 22%; % Inhibition (FS) (β-secretase (BACE) [2]; 1 μM test compound, 1 µM): 34%; % Inhibition (FS) (β-secretase (BACE) [2]; 3 μM test compound, 3 µM): 97%
CN(C(=O)CCC(C1CCOCC1)N1Cc2cc(Oc3ccccc3)ccc2N=C1N)C1CCC(C(=O)O)CC1 (stereo not drawn) [Compound 743]			130%	
CN(C(=O)CC[C@@H](C1CCCCC1)N1Cc2ccc(Oc3ccccc3)cc2N=C1N)C1CCCCC1 [Compound 754]	8%	35%	89%	
CCOC(=O)C1CCC(N(C)C(=O)CCC(C2CCCCC2)N2Cc3cc(Oc4ccccc4)ccc3N=C2N)CC1 (stereo not drawn) [Compound 763]				% Inhibition (FS) (β-secretase (BACE) [2]; 0.3 μM test compound, 0.3 µM): <30%; % Inhibition (FS) (β-secretase (BACE) [2]; 1 μM test compound, 1 µM): 84%
CNC(=O)C1CCC(N(C)C(=O)CCC(C2CCCCC2)N2Cc3cc(Oc4ccccc4)ccc3N=C2N)CC1 (stereo not drawn) [Compound 765]	<30%	56%	97%	
CN(C(=O)CCC(C1CCCCC1)N1Cc2cc(Oc3ccccc3)ccc2N=C1N)c1ccc(C(=O)O)cc1 (stereo not drawn) [Compound 766]	<30%	<30%	<30%	
CN(CC(=O)O)C(=O)CCC(C1CCCCC1)N1Cc2cc(Oc3ccccc3)ccc2N=C1N (stereo not drawn) [Compound 767]	<30%	71%		
CN(C(=O)CCC(C1CCCCC1)N1Cc2cc(Oc3ccccc3)ccc2N=C1N)C1CCC(C#N)CC1 (stereo not drawn) [Compound 769]	<30%	61%		
CN(C(=O)CCC(C1CCCCC1)N1Cc2cc(Oc3ccccc3)ccc2N=C1N)C1CCC(c2nn[nH]n2)CC1 (stereo not drawn) [Compound 770]	<30%	<30%	<30%	
COC(=O)Cc1cccc(CN(C)C(=O)CCC(C2CCCCC2)N2Cc3cc(Oc4ccccc4)ccc3N=C2N)c1 (stereo not drawn) [Compound 775]	<30%	62%		
CN(Cc1cccc(CC(=O)O)c1)C(=O)CCC(C1CCCCC1)N1Cc2cc(Oc3ccccc3)ccc2N=C1N (stereo not drawn) [Compound 778]	<30%	77%		
COC(=O)C(COCc1ccccc1)N(C)C(=O)CCC(C1CCCCC1)N1Cc2cc(Oc3ccccc3)ccc2N=C1N (stereo not drawn) [Compound 780]	69%	97%		
COC(=O)[C@H](COCc1ccccc1)N(C)C(=O)CC[C@@H](C1CCOCC1)N1Cc2cc(Oc3ccccc3)ccc2N=C1N [Compound 786]	97%			
